A short description of data set [1]: Maximum solubility of ITZA and azole analogues in solvents (HPLC). It is filed as physicochemical. The conditions noted are these: for solubility at 30 min: organic solvent or mixture, thermodynamic from solid. The protocol: ITZA and its analogues were dissolved in various solvents incubated at 37° C. for 30 minutes, cooled down to room temperature, centrifuged at 14,000 rpm for 1 min. The supernatant was analyzed using HPLC to determine the maximum solubility of ITZA and its azole analogues.
In a first step the maximum ITZA solubility in various single solvents was determined. To this end, ITZA and its analogs were dissolved in various solvents, incubated at 37° C. for 30 minutes, cooled down to room temperature, centrifuged at 14,000 rpm for 1 min. The supernatant was analyzed using HPLC to determine the maximum solubility of the respective agent.
The solubility of ITZA was determined in several individual vehicles. Briefly, a known amount of ITZA drug, formulated as a powder (Sigma Inc., St Louis, Mo.), was equilibrated in the respective solvent at RT over 1-4 hours. An aliquot was removed, filtered, and prepared for HPLC to determine maximum solubility at room temperature. Based on the ITZA solubility in each vehicle, different solvents were mixed according to the cosolvency principle in an attempt to arrive at an enhanced stable solubility. […] The stock formulation was then diluted with a final diluent, i.e. NS or D5W or DlOW, to yield a stable use-formulation. The desired range of the final use-formulation was between 1 and 5 mg/mL, as it would result in a final volume that could be safely and conveniently infused intravascularly.
An excess of ITZA as a powder was added to a multitude of chemical solvents (Table 1) at RT. Each mixture was intermittently vortexed, placed in a dark environment and checked visually for up to 4 hours for evidence of solubilization. Following centrifugation to remove solid particles, small samples were withdrawn after consecutive time intervals and the ITZA concentration was determined by HPLC as described.

Data set [2] relates to Candida cruzei (ATCC strain 6258). The data set is described as follows: Yeast susceptibility test, MIC (CLSI standard). It is filed as cell-based. The conditions noted are these: tested range 38 μg/mL to 0.03 μg/mL, read out at 24 hours, average of three experiments. The protocol: (§1) Briefly, susceptibility tests were set-up using a standardized methodology (CLSI […] standard). Drugs were diluted into RPMI-Mops medium (Yeast One Broth (Sensititer, product Y3462, Trek Diagnostic Systems, Cleveland, Ohio) Sensititer Lot number 151416SA-expiration date 2011-01). Two different strains of yeast were tested, the standardized evaluation/read out was performed at 24 hours after the start of each culture. The tests were repeated twice and all MIC (minimum inhibitory concentration) values are reported as an average of the three experiments.

For the next data set, the system named is Candida parapsilosis. The data set is described as follows: Yeast susceptibility test, MIC (CLSI standard). Conditions: tested range 38 μg/mL to 0.03 μg/mL, read out at 24 hours, average of three experiments. It is filed as cell-based. Here is the method:
as §1

Data set [3] concerns Aspergillus fumigatus (ATCC strain 90906). Kind of data set: Mold susceptibility test, MIC (CLSI M38A). In kind it is cell-based. The protocol: (§2) Two hyaline molds were tested with a standard read out at 48 hrs:
(§3) Tested drug range: 75 μg/mL to 0.07 μg/mL
(§4) To further determine the antifungal activity of the compounds in the new formulation systems we investigated the efficacy of the various agents against additional strains of mucor and Aspergillus (9/-16-9/20/2010) (The Rhizomucor was a clinical isolate from a patient isolate) and the Aspergillus fumigatus (ATCC strain 90906) used was a repeat from the previously described experiment. Again, the susceptibility tests were set-up using the standardized test method (CLSI M38A). The used drugs were provided in the described H3 final use-formulation that has been previously described. All drugs were diluted in RPMI-Mops medium (YeastOne, Sensititer Lot 151416SA, expiration date January 2011).
As before two different molds were tested with a standard read out at 48 hr: • Drug dilution range 75 μg/mL to 0.07 μg/mL. • Aspergillus fumigatus (ATCC strain 90906) Zygomycete (Clinical Lab isolate, MDACC) […]

Data set [4] has as its system Aspergillus fumigatus (Clinical Lab isolate). Kind of data set: Mold susceptibility test, MIC. It is filed as cell-based. Conditions: tested range 75 μg/mL to 0.07 μg/mL, read out at 48 hrs. The protocol:
as §2, §3, §1

The subject of data set [5] is Zygomycete (Clinical Lab isolate, MDACC). Kind of data set: Extended mold testing, MIC (CLSI M38A). In kind it is cell-based. The conditions noted are these: H3 final use-formulation, range 75 μg/mL to 0.07 μg/mL, 48 hr.
From the text: as §4
As before two different molds were tested with a standard read out at 48 hr: • Drug dilution range 75 μg/mL to 0.07 μg/mL. • Aspergillus fumigatus (ATCC strain 90906) Zygomycete (Clinical Lab isolate, MDACC)

Where [6] appears, read: solvent H3D (no benzyl alcohol), single determination, read-out: Azole solubility, [Drug] mg/mL.
The mark [7] stands for this setting: solvent H3D (no benzyl alcohol), read-out: Azole solubility, Average mg/mL.
[8] abbreviates: solvent H3G (no benzyl alcohol), single determination, read-out: Azole solubility, [Drug] mg/mL.
Where [9] appears, read: solvent H3G (no benzyl alcohol), read-out: Azole solubility, Average mg/mL.
Where [10] appears, read: solvent H3D (no benzyl alcohol), single determination.
[11] abbreviates: solvent H3G (no benzyl alcohol), single determination.
Setting [12] is: extended mold testing (repeat), H3 final use-formulation, range 75 μg/mL to 0.07 μg/mL, 48 hr.
[13] abbreviates: tested range 75 μg/mL to 0.07 μg/mL, read out at 48 hrs, first experiment.
Where [14] appears, read: Aspergillus fumigatus, 48 h, read-out: MIC.

Values after ≈ are worked out from the molar mass of the structure shown. Read-outs that look alike come from different tables or passages of the source.

For the compound `OC(Cn1cncn1)(Cn1cncn1)c1ccc(F)cc1F` [FZSA, Fluconazole], the solubility at 30 min in data set [1] (setting [6]) came to 38.6 mg/mL (≈ 126000 µM); in data set [1] (setting [7]), 36.1 mg/mL (≈ 118000 µM); in data set [1] (setting [8]), 28.4 mg/mL (≈ 92700 µM); in data set [1] (setting [9]) it was 30.3 mg/mL (≈ 98900 µM). For the same compound, the figures for the “Azole solubility, [Drug] mg/mL” value in data set [1] (setting [10]) and in data set [1] (setting [11]) were 33.5 mg/mL and 32.2 mg/mL, respectively. The MIC entry is “all grew” in data set [2]; 1.2 µg/mL (≈ 3.92 µM) in the data set on Candida parapsilosis (24 h, read-out: MIC); “all grew” in data set [3] (setting [12]); “all grew” in data set [3] (setting [13]); “all grew” in data set [4]; “all grew” in data set [5].

As to `CCC(C)n1ncn(-c2ccc(N3CCN(c4ccc(OCC5COC(Cn6cncn6)(c6ccc(Cl)cc6Cl)O5)cc4)CC3)cc2)c1=O` (stereo not drawn) [ITZA(ref 2), itraconazole], the minimum inhibitory concentration (MIC) in data set [2] was determined as 0.3 µg/mL (≈ 0.425 µM); against Candida parapsilosis, 0.15 µg/mL (≈ 0.213 µM); in data set [3] (setting [12]), 0.3 µg/mL (≈ 0.425 µM); in data set [3] (setting [13]), 0.6 µg/mL (≈ 0.85 µM); in data set [4] it was 0.3 µg/mL (≈ 0.425 µM); in data set [5], 2.5 µg/mL (≈ 3.54 µM).

Consider `COC(=O)Nc1nc2ccc(C(=O)c3ccccc3)cc2[nH]1` [MBZSA, Mebendazole], for which the minimum inhibitory concentration (MIC) result is “all grew (no drug effect)” in data set [2]; “all grew” with Candida parapsilosis; “all grew (no inhibition)” in data set [3] (setting [12]); “all grew (no drug effect)” in data set [3] (setting [13]); 5 µg/mL (≈ 16.9 µM) in data set [4] (setting [14]); “all grew” in data set [5].

As to `CC(=O)N1CCN(c2ccc(OCC3COC(Cn4ccnc4)(c4ccc(Cl)cc4Cl)O3)cc2)CC1` (stereo not drawn) [KZSA, Ketoconazole], the solubility at 30 min in data set [1] (setting [6]) was 15.4 mg/mL (≈ 29000 µM); in data set [1] (setting [7]), 15.3 mg/mL (≈ 28800 µM); in data set [1] (setting [8]) it was 14.8 mg/mL (≈ 27800 µM); in data set [1] (setting [9]), 14.9 mg/mL (≈ 28000 µM). The figures for the “Azole solubility, [Drug] mg/mL” value in data set [1] (setting [10]) and in data set [1] (setting [11]) were 15.2 mg/mL and 15.1 mg/mL, respectively. The MIC in data set [2] (Candida, ATCC6258, 24 h, read-out: MIC) was determined as 0.15 µg/mL (≈ 0.282 µM); in the data set on Candida parapsilosis (24 h, read-out: MIC), 0.03 µg/mL (≈ 0.0565 µM); in data set [3] (Aspergillus fumigatus, ATCC90906, 48 h, extended mold testing (repeat), H3 final use-formulation, range 75 μg/mL to 0.07 μg/mL, 48 hr, read-out: MIC) it was 10 µg/mL (≈ 18.8 µM); in data set [3] (Aspergillus fumigatus, ATCC90906, 48 h, tested range 75 μg/mL to 0.07 μg/mL, read out at 48 hrs, first experiment, read-out: MIC), 20 µg/mL (≈ 37.6 µM); in data set [4] (setting [14]), 20 µg/mL (≈ 37.6 µM); in data set [5] (read-out: MIC), 38 µg/mL (≈ 71.5 µM).
